# Experiments:
# [1] = system: colon cancer model Colon-26; assay: (R)-ketorolac combined with gemcitabine on colon cancer model Colon-26, tumor growth curve; type: in vivo; conditions: Colon-26 s.c. in male BALB/C mice; (R)-ketorolac alone by gavage 0.1 mg/d for 12 d
# Experimental: (§1) The colon cancer tumor model was established by using adult male BALB/C mice which were subcutaneously inoculated 106 well-growing Colon-26 tumor cells. Starting from the 7th day after tumor inoculation, the two largest diameters of the tumors were measured with vernier calipers twice a week, and the tumor size was expressed as area (square millimeters). After the tumors grew to a certain size, the mice were randomly divided into 4 groups, including a control group (n=5) and 3 treatment groups: the (R)-ketorolac monotherapy group (n=5) was administered by gavage, 0.1 mg/d, for a total of 12 d; the gemcitabine monotherapy group (n=4) was administered intraperitoneally, 2 mg/1 time every 3 d, for a total of 4 times; and the combined therapy group (n=5) adopted the two drugs in combination, and the dosage and frequency of administration were the same as those in the monotherapy group.
# After starting the treatment, the tumors were measured twice a week, and a tumor growth curve was made based on average tumor area=SEM.
# [2] = system: aortic dissection and aortic aneurysm; conditions: oral administration; from CN202111115983.X; cited from earlier work
# [3] = stronger than (R)-ketorolac; cited from earlier work
# [4] = stronger than (R)-ketorolac; cited from earlier work; remark: listed apart in the source
# [5] = system: colon cancer model Colon-26; conditions: Colon-26 in BALB/C mice; cyclophosphamide i.p. 3 mg every 6 d x3, with or without (R)-ketorolac 0.1 mg/d x18
# Experimental: as §1
# The colon cancer tumor model was established as described in the above.
# After starting the treatment, the tumors were measured twice a week, and a tumor growth curve was made based on average tumor area±SEM.
smiles,measurement,setting,value
O=C(c1ccccc1)c1ccc2n1CC[C@H]2C(=O)O [(R)-ketorolac],"effect on colon cancer tumor growth (tumor area growth curve, FIG. 16)",[1],no effect
same,"effect on aortic dilation, incidence and mortality of aortic dissection and aortic aneurysm",[2],inhibit pathological dilation of the aorta and reduce the incidence and mortality of aortic dissection and aortic aneurysm
O=C(c1ccccc1)c1ccc2n1CC[C@@H]2C(=O)O [(S)-ketorolac],analgesic effect relative to (R)-ketorolac,[3],230 times
same,anti-inflammatory effect relative to (R)-ketorolac,[4],60 times
O=P1(N(CCCl)CCCl)NCCCO1 (stereo not drawn) [cyclophosphamide],cure rate,[5],16.7%
same,mice completely cured,[5],1 out of 6

# Source: patent US20260035372A1, “METHOD FOR PREPARING (R)-KETOROLAC AND USE THEREOF” (Yinuoke Medicine Science and Technology Co LTD, priority 2022, published 2026)
